Assay results published in ChEMBL document CHEMBL3808322, “Structure-based discovery of novel 4,5,6-trisubstituted pyrimidines as potent covalent Bruton's tyrosine kinase inhibitors” (Bioorg Med Chem Lett, 2016).

Tests used:
[1] = target: T1, Tyrosine-protein kinase BTK (Homo sapiens, UniProt Q06187); assay: Inhibition of BTK (unknown origin) assessed as reduction in phosphorylation of coumarin and fluorescein-labeled FRET peptide substrate incubated for 1 hr by Z-Lyte assay
[2] = target: T1, Tyrosine-protein kinase BTK; assay: Inhibition of BTK (unknown origin)

T1 sequence (Q06187 whole entry): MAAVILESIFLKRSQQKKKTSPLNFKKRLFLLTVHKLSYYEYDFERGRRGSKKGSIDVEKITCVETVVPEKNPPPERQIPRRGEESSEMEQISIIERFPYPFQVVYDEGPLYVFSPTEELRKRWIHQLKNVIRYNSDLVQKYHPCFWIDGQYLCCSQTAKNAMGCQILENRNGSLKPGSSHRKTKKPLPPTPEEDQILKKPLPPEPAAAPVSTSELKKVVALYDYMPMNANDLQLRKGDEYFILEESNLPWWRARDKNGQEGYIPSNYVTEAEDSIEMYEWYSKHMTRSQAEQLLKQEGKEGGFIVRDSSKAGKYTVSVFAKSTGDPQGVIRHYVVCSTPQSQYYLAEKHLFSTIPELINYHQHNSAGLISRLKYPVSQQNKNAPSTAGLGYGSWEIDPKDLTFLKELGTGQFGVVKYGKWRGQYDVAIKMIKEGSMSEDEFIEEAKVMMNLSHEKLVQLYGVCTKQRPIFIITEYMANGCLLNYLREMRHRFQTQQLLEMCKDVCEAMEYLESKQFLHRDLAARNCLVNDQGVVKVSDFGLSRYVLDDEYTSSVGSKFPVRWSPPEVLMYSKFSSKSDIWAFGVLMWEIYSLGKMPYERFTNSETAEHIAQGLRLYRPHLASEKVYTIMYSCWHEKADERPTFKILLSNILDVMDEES

Compound	IC50 [1] [nM]	IC50 [2] [nM]
C=CC(=O)N1CCN(c2ncnc(N)c2C(=O)c2ccc(Oc3ccccc3)cc2)CC1	880	
C=CC(=O)N1CCC[C@@H](n2c(=O)n(-c3ccc(Oc4ccccc4)cc3)c3c(N)ncnc32)C1		23.9
C=CC(=O)Nc1cccc(Oc2nc(Nc3ccc(N4CCN(C)CC4)cc3)nc3ccsc23)c1 [OLMUTINIB]		1

Other lines, results leading:

IC50 [1] [nM]	IC50 [2] [nM]	Compound
1070		C=CC(=O)N1CCC(Nc2ncnc(N)c2C(=O)c2ccc(Oc3ccccc3)cc2)CC1
1320		C=CC(=O)N1CCN(c2ncnc(N)c2C(=O)c2ccc(OCC)cc2)CC1
1800		C=CC(=O)N1CCC[C@@H](Nc2ncnc(N)c2C(=O)c2ccc(OCC)cc2)C1
70		C=CC(=O)N1CCC[C@@H](Nc2ncnc(N)c2C(=O)c2ccc(Oc3ccccc3)cc2)C1
